Data published in article PMC12022980, “Rational Design of PROTAC Linkers Featuring Ferrocene as a Molecular Hinge to Enable Dynamic Conformational Changes” (Journal of the American Chemical Society, 2025).

Assays:
CRBN = target: T1, CRBN (Homo sapiens, UniProt Q96SW2); design: method as in PMID 30826187; conditions: cited from earlier work
T1 construct: endogenous in cells; host or cells: HEK293 (ATCC)

[1] = target: VCB protein complex (VHL:ElonginC:ElonginB) (Homo sapiens, UniProt P40337); assay: Native gel electrophoresis assay for ternary complex formation; format: binding; conditions: VCB incubated with PROTAC 30 min, room temperature
Chain of VCB protein complex (VHL:ElonginC:ElonginB) (P40337 54-213 limits assumed, species assumed): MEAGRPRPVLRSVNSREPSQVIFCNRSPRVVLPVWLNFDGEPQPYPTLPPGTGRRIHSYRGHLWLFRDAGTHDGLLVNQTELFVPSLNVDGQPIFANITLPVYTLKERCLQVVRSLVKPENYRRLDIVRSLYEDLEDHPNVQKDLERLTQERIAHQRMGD
Chain of VCB protein complex (VHL:ElonginC:ElonginB) (Q15369 17-112 partner limits assumed, species assumed): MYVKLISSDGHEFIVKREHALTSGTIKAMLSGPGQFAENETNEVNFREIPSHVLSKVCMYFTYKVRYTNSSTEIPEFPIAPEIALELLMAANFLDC
Chain of VCB protein complex (VHL:ElonginC:ElonginB) (Q15370 1-104 partner limits assumed, species assumed): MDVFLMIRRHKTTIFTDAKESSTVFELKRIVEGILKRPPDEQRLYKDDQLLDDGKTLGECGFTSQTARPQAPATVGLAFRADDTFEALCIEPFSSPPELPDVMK
Description: To monitor ternary complex formation mediated by FerroTACs, we leveraged native gel electrophoresis assay, a methodology recently validated to assess VHL dimerization by homo-PROTACs.[41] This in vitro approach serves as a rapid semiqualitative tool to evaluate homo-FerroTAC activity in promoting stable ternary protein complexes. The technique is user-friendly, suitable for higher throughput, and requires lower protein quantities compared to other biophysical methods. The recombinant VCB protein complex (VHL:ElonginC:ElonginB) was incubated with the corresponding Homo-PROTACs (CM11, AS1, cisAS1, AS2) for 30 min at room temperature, followed by non-denaturing gel electrophoresis. Ternary complex formation was indicated by an upward shift in the protein band on the gel, in agreement with the higher molecular weight of the complex. […]
antibody (LI-COR #926-32213, 1:5,000) or IRDye 800CW donkey anti-mouse secondary antibody, (Li-COR […]
room temperature and protected from light. Thereafter, the membranes were washed with TBS-T three times for 10 min, and protein bands were acquired using a ChemiDoc MP imaging system (Bio-Rad). Band quantification was performed using Image Lab software and reported as ratio of each protein band relative to the lane’s loading control. The values obtained were then normalised to vehicle control.
Native Gel Electrophoresis Assay
Gel casting. […]

pVHL30 = target: T2, pVHL30 (Homo sapiens, UniProt P40337); design: method as in PMID 29018234; conditions: cited from earlier work
T2 construct: endogenous in cells; host or cells: HEK293 (ATCC)
T2 sequence (P40337 whole entry): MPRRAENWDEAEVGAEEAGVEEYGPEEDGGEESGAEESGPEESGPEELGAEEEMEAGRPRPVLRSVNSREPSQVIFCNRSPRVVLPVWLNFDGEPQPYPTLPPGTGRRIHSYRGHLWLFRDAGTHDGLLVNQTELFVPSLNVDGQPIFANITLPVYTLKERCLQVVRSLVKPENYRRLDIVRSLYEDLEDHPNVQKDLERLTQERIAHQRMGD

T1 sequence (Q96SW2 whole entry): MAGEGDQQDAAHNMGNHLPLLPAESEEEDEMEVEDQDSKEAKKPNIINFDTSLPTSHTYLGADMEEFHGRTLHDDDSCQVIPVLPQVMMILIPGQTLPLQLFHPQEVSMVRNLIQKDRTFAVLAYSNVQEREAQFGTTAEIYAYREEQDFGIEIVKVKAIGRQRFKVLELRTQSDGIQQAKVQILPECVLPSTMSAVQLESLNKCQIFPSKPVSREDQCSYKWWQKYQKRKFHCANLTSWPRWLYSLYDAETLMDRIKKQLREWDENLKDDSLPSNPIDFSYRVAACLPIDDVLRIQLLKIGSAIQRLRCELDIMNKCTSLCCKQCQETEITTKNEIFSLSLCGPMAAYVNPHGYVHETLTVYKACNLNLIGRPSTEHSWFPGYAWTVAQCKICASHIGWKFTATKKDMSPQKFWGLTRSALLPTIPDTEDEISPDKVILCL

Structure (SMILES)	DC50 (CRBN) [nM]	ternary complex formation, native gel (in words) [1]	t1/2 (pVHL30 degradation half-life) (pVHL30; 1 μM, calculated from ref 38) [min]	DC50 (pVHL30; reference value, CM11 only run at 1 μM here, read-out: DC50 ± S.D (pVHL30)) [nM]
Cc1ncsc1-c1ccc(CNC(=O)[C@@H]2C[C@@H](O)CN2C(=O)[C@@H](NC(=O)CCCCCOCCOCCCCCC(=O)Nc2cccc3c2C(=O)N(C2CCC(=O)NC2=O)C3=O)C(C)(C)C)cc1 (stereo partly shown) [14a]	200			
Cc1ncsc1-c1ccc(CNC(=O)[C@@H]2C[C@@H](O)CN2C(=O)[C@@H](NC(=O)COCCOCCOCCOCCOCCOCC(=O)N[C@H](C(=O)N2C[C@H](O)C[C@H]2C(=O)NCc2ccc(-c3scnc3C)cc2)C(C)(C)C)C(C)(C)C)cc1 [CM11]		induced formation of an up-shifted protein band	85.1	< 100
